Measured values taken from patent publication US5298494A, “Monosaccharides having anti-proliferation and anti-inflammatory activity, compositions and uses thereof” (Greenwich Pharmaceuticals Incorporated, priority 1993, dated 1994).
“And” between values parts separate entries of the source, which are not always exact repeats. Equal entries are not always repeated. Where two headings read alike, the source gives them in different places.

What was measured:
[1] = test system: T cell proliferation in mouse spleen cell mixed lymphocyte cultures; assay: Mixed Lymphocyte Reaction (MLR) assay; type: cell-based, mouse (Balb/c responder, C57B1/6 stimulator)
Text: The pharmacologic assays performed to determine the immunomodulatory effects of the experimental compounds in vitro include the Mixed Lymphocyte Reaction (MLR) and the ConA blastogenesis assay. These assays were used to determine the inhibitory effects of the compounds of the invention on T lymphocyte activation and proliferation. Since inflammation at the cellular level is characterized by T lymphocyte recruitment, activation and proliferation, these assays are appropriate to use as screens for novel compounds having therapeutic potential in the treatment of disorders in which inflammatory mechanisms are involved.
The MLR is a classical assay used to measure T cell function by studying the proliferative response of T cells which are activated in vitro by genetically disparate stimulator cells. This is accomplished by co-culturing spleen cells from two different strains of mice. Splenic T cell proliferation occurs as a result of cellular activation signals generated by the ongoing cellular interactions.
Balb/c mice were euthanised by cervical dislocation and their spleens removed. Single cell suspensions of the spleens were prepared in culture medium (hepes buffered RPMI-1640 supplemented with 10% fetal calf serum, 2mM glutamine, 500 units penicillin/ streptomycin, and 4×10^-5 M 2-mercaptoethanol) using a Teflon pestle. The cells were centrifuged at 1500 rpm and the pellets resuspended in ACT (0.15M tris, 0.14M ammonium chloride, pH 7.2) in order to lyse the red blood cells. After a 5 minute incubation in a 37 C. waterbath, the cells were resuspended in culture medium and counted. C57B1/6 spleen cells which were used as stimulator cells, were also prepared by this method. The stimulator cells were treated with 100 ug/ml of mitomycin c for 1 hour at 37 C. (to inhibit stimulatory cell proliferation) and were then washed 5 times in culture medium. The proliferative responses were measured by culturing 2.5×10^5 responder cells with 5×10^5 stimulatory cells in 96 well microtiter plates in the presence or absence of various doses of test compounds or vehicle (DMSO). Syngeneic control cultures using mitomycin c treated Balb/c spleen cells as stimulator cells were also run. All cultures were run in triplicate.
Solutions of compounds of the present invention in DMSO were prepared at a stock concentration of 120 Mm. Dilutions were made in culture medium to the following concentrations: 3, 10, 30, 100, and 300 uM. The vehicle (DMSO) was used as a negative control.
After incubation of for 5 days at 37 C. with 5% CO2, the amount of cell proliferation was measured by adding 20 ul of MTT (3-[4,5-dimethylthiazol-2-yl]-2,5diphenyl-tetrazolium bromide) (10 mg/ml in phosphate buffered saline) to each well. Plates were incubated for 4 hours at 37 C., after which 180 ul of 10% sodium dodecyl sulphate in phosphate buffered saline was added. After an overnight incubation, the optical density (OD) of each well was read on a Molecular Devices microplate reader at 570-650 nm. The results were determined by calculating the difference between the means of the allogeneic cultures and the means of the syngenic cultures for each test article concentration. Differences of the test article groups were compared to the control group and the percent change from the control was determined.

[2] = test system: T lymphocytes (normal mouse spleen cells) stimulated with ConA; assay: Mouse Spleen Cell ConA Blastogenesis Assay; type: cell-based, mouse (C57Bl/6); details: for inhibition at 0.01 µg/mL / inhibition at 0.001 µg/mL / inhibition at 0.1 µg/mL / inhibition at 1 µg/mL / inhibition at 2.5 µg/mL / inhibition at 10 µg/mL / inhibition at 25 µg/mL / inhibition at 100 µg/mL: Mus musculus, T-lymphocyte; for inhibition at 0.01 µg/mL: 0.01 ug/ml, read-out: % Change from Control (Table II); for inhibition at 0.001 µg/mL / inhibition at 0.1 µg/mL / inhibition at 1 µg/mL / inhibition at 2.5 µg/mL / inhibition at 10 µg/mL / inhibition at 25 µg/mL / inhibition at 100 µg/mL: read-out: % change from control, ConA blastogenic response
Text: It is well known that several plant lectins, when cultured in vitro with lymphocytes, stimulate cellular activation and proliferation. Concanavolin, (ConA) selectively stimulates the blastogenic response of T lymphocytes.
Six to 8 week old male C57Bl/6 mice were purchased from Harlan Sprague Dawley (Indianapolis, Ind.).
Spleens were removed and were homogenized to obtain a single cell suspension. Erythrocytes were lysed by hypotonic shock. Upon determination of the viability and concentration of the lymphoid cells, they were adjusted to 4×10^6 cells/ml in culture medium (RPMI-1640) supplemented with 10% fetal bovine serum; 100 ug/ml streptomycin; 100 U/ml penicillin, 0.2M hepes buffer; 5×10^-5 M 2-mercaptoethanol and 2 mM glutamine). seeded into microtiter plate wells at 2×10^5 cells/0.050 ml/well. To these cultures were added various doses of experimental compounds and ConA at a final concentration of 4 or 1 ug/ml. Control cultures consisted of cells, ConA and culture medium containing the vehicle, DMSO only. […] For the testing of the methyl 1,3-O-isopropylidene-6-O-n-heptyl-α-D-fructofuranoside compound indomethacin and NDGA were used as controls. All cultures were run in triplicate.
Solutions of compounds of the invention in DMSO were prepared and dilutions were made in culture medium. Assay concentrations were either: 1, 2.5, 10, 25, 100, 300 and 750 ug/ml or 0.001, 0.01, 0.1, 1, 2.5, 10, 25 and 100 ug/ml.
Cultures were incubated for 3 days at 37° C. in a humidified atmosphere of 5% of CO2 in air. For the last 18 hours of culture, 1 uCi of ^3 H-thymidine was also incubated in each well. The cells were precipitated by a multi-channel harvester. The amount of ^3 H-thymidine incorporated by the cultures, as a measure of cell proliferation, was measured in a liquid scintillation counter. The amount of radioactive incorporation is proportional to the amount of cellular proliferation in individual wells. The students T test was used to determine the significance of the difference between experimental and control values.

[3] = ConA 1 ug/ml, compound 0.001 ug/ml
[4] = ConA 1 ug/ml, compound 0.1 ug/ml
[5] = ConA 1 ug/ml, compound 2.5 ug/ml
[6] = ConA 1 ug/ml, compound 10 ug/ml
[7] = ConA 1 ug/ml, compound 25 ug/ml
[8] = ConA 1 ug/ml, compound 100 ug/ml
[9] = ConA 4 ug/ml, compound 0.001 ug/ml
[10] = ConA 4 ug/ml, compound 0.1 ug/ml
[11] = ConA 4 ug/ml, compound 2.5 ug/ml
[12] = ConA 4 ug/ml, compound 10 ug/ml
[13] = ConA 4 ug/ml, compound 25 ug/ml
[14] = ConA 4 ug/ml, compound 100 ug/ml

CCCCCCCCCCCCCCCOCC(O)C1OC2OC(C)(C)OC2C1O [IIId, 1,2-O-Isopropylidene-6-O-pentadecyl-α-D-glucofuranose]
Mean O.D. Allogenic ([1]; 3 um): 0.210 O.D.
Mean O.D. Syngeneic ([1]; 3 um): 0.138 O.D.
Mean O.D. Allogenic ([1]; 10 um): 0.197 O.D.
Mean O.D. Syngeneic ([1]; 10 um): 0.128 O.D.
Mean O.D. Allogenic ([1]; 30 um): 0.104 O.D.
Mean O.D. Syngeneic ([1]; 30 um): 0.032 O.D.
Mean O.D. Allogenic ([1]; 100 um): 0.021 O.D.
Mean O.D. Syngeneic ([1]; 100 um): 0.019 O.D.
Mean O.D. Allogenic ([1]; 300 um): 0.015 O.D.
inhibition at 3 µM ([1]; Mus musculus, Lymphocyte, 3 um, read-out: % Change From Control, MLR): 13%
inhibition at 10 µM ([1]; Mus musculus, Lymphocyte, 10 um, read-out: % Change From Control, MLR): 17%
inhibition at 30 µM ([1]; Mus musculus, Lymphocyte, 30 um, read-out: % Change From Control, MLR): 13%
inhibition at 100 µM ([1]; Mus musculus, Lymphocyte, 100 um, read-out: % Change From Control, MLR): 98%

Cc1cn([C@H]2C[C@H](N=[N+]=[N-])[C@@H](CO)O2)c(=O)[nH]c1=O [AZT, reference compound]
Blastogenic response of normal spleen cells to Con-A [2, 3]: 47.1 ± 4.5 × 10^-3 cpm
Blastogenic response of normal spleen cells to Con-A ([2]; ConA 1 ug/ml, compound 0.01 ug/ml): 36.7 ± 3.1 × 10^-3 cpm
Blastogenic response of normal spleen cells to Con-A [2, 4]: 9.1 ± 5.8 × 10^-3 cpm
% change from control, ConA blastogenic response ([2]; ConA 1 ug/ml, compound 1 ug/ml): -99% and -96%
Blastogenic response of normal spleen cells to Con-A ([2]; ConA 1 ug/ml, compound 1 ug/ml): 1.7 ± 0.1 × 10^-3 cpm
% change from control, ConA blastogenic response [2, 5]: -98%
Blastogenic response of normal spleen cells to Con-A [2, 5]: 0.7 ± 0.3 × 10^-3 cpm
% change from control, ConA blastogenic response [2, 6]: -100% and -99%
Blastogenic response of normal spleen cells to Con-A [2, 6]: 0.5 ± 0.1 × 10^-3 cpm
% change from control, ConA blastogenic response [2, 7]: -100% and -99%
Blastogenic response of normal spleen cells to Con-A [2, 7]: 0.5 ± 0.2 × 10^-3 cpm
% change from control, ConA blastogenic response [2, 8]: -100% and -99%
Blastogenic response of normal spleen cells to Con-A [2, 8]: 0.3 ± 0.0 × 10^-3 cpm
Blastogenic response of normal spleen cells to Con-A [2, 9]: 163.7 ± 8.0 × 10^-3 cpm
Blastogenic response of normal spleen cells to Con-A ([2]; ConA 4 ug/ml, compound 0.01 ug/ml): 158.1 × 10^-3 cpm
Blastogenic response of normal spleen cells to Con-A [2, 10]: 24.5 ± 3.0 × 10^-3 cpm
% change from control, ConA blastogenic response ([2]; ConA 4 ug/ml, compound 1 ug/ml): -99% and -97%
Blastogenic response of normal spleen cells to Con-A ([2]; ConA 4 ug/ml, compound 1 ug/ml): 4.0 ± 1.5 × 10^-3 cpm
% change from control, ConA blastogenic response [2, 11]: -100% and -99%
Blastogenic response of normal spleen cells to Con-A [2, 11]: 1.9 ± 0.4 × 10^-3 cpm
% change from control, ConA blastogenic response [2, 12]: -100% and -99%
Blastogenic response of normal spleen cells to Con-A [2, 12]: 1.4 ± 0.4 × 10^-3 cpm
Blastogenic response of normal spleen cells to Con-A [2, 13]: 1.3 ± 0.5 × 10^-3 cpm
% change from control, ConA blastogenic response [2, 14]: -99% and -100%
Blastogenic response of normal spleen cells to Con-A [2, 14]: 0.6 ± 0.1 × 10^-3 cpm
inhibition at 0.01 µg/mL ([2]; ConA 1 ug/ml): 7%
inhibition at 0.001 µg/mL [2, 3]: 18%
inhibition at 0.1 µg/mL [2, 4]: 93%
inhibition at 1 µg/mL ([2]; ConA 1 ug/ml, compound 1 ug/ml): 96%
inhibition at 2.5 µg/mL [2, 5]: 98%
inhibition at 10 µg/mL [2, 6]: 99%
inhibition at 25 µg/mL [2, 7]: 99%
inhibition at 100 µg/mL [2, 8]: 99%
inhibition at 0.01 µg/mL ([2]; ConA 4 ug/ml): 13%
inhibition at 0.001 µg/mL [2, 9]: -5%
inhibition at 0.1 µg/mL [2, 10]: 99%
inhibition at 1 µg/mL ([2]; ConA 4 ug/ml, compound 1 ug/ml): 97%
inhibition at 2.5 µg/mL [2, 11]: 99%
inhibition at 10 µg/mL [2, 12]: 99%
inhibition at 25 µg/mL [2, 13]: 99%
inhibition at 100 µg/mL [2, 14]: 100%
